Assays:
Format in all cases: cell-based
[1] = test system: approximately 60 human tumor cell lines; test: NCI DTP human tumor cell line screen, whole panel statistics; conditions: for inhibitory activities against cancer cells: DTP human tumor cell line screen, non-small cell lung, colon, breast, ovarian, leukemia, renal, melanoma, prostate, CNS cancer; for mean growth percent: mean over all cell lines tested; for mean growth percent / delta value (growth percent) / range (growth percent): 10 μM, 48 h; for delta value (growth percent) / range (growth percent): over all cell lines tested
Experimental: (§1) Representative compounds of the invention, prepared as described in EXAMPLES 1-6, were submitted to the Developmental Therapeutics Program of the United States National Cancer Institute (NCl) to screen for anti-cancer activity. The anti-cancer activities of the six compounds were tested against approximately 60 human tumor cell lines representing leukemia, melanoma, and cancers of the lung, colon, breast, ovary, kidney, prostate, and brain. The following screening methodology was provided by the NCl. […] For experimental screens, cells were inoculated into 96 well microtiter plates in 100 μL at plating densities ranging from 5,000 to 40,000 cells/well depending on the doubling time of individual cell lines. After cell inoculation, the microtiter plates were incubated at 37° C., 5% carbon dioxide, 95% air and 100% relative humidity for 24 hours prior to addition of the compounds. After 24 hours of incubation, two plates of each cell line were fixed in situ with trichloroacetic acid (TCA) to represent a measurement of the cell population for each cell line at the time of compound addition (Tz). The compounds were solubilized in dimethyl sulfoxide at 400-fold the desired final maximum test concentration and stored frozen prior to use. At the time of drug addition, frozen aliquots of the compounds thawed and diluted with complete medium containing 50 μg/ml gentamicin. Aliquots of 100 μl of these different compound dilutions were added to the appropriate microtiter wells already containing 100 μl of medium, resulting in the required final compound concentration of 10 μM. Following compound addition, the plates were incubated for an additional 48 h at 37° C., 5% carbon dioxide, 95% air, and 100% relative humidity. For adherent cells, the assay was terminated by the addition of cold TCA. Cells were fixed in situ by the gentle addition of 50 μl of cold 50% (w/v) TCA (final concentration, 10% TCA) and incubated for 60 minutes at 4° C. The supernatant was discarded, and the plates were washed five times with tap water and air dried. Sulforhodamine B (SRB) solution (100 μl) at 0.4% (w/v) in 1% acetic acid was added to each well, and plates were incubated for 10 minutes at room temperature. After staining, unbound dye was removed by washing five times with 1% acetic acid and the plates were air dried. Bound stain was subsequently solubilized with 10 mM trizma base, and the absorbance was read on an automated plate reader at a wavelength of 515 nm. For suspension cells, the methodology was the same except that the assay was terminated by fixing settled cells at the bottom of the wells by gently adding 50 μl of 80% TCA (final concentration, 16% TCA). Using the three absorbance measurements [time zero, (Tz), control growth, (C), and test growth in the presence of compound (Ti)], the percentage growth was calculated at each of the compound concentrations levels. Percentage growth inhibition was calculated with the following algorithms: [(Ti−Tz)/(C−Tz)]×100 for concentrations for which Ti>/=Tz [(Ti−Tz)/Tz]×100 for concentrations for which Ti<Tz The results of the NCl in vitro anticancer screening with six compounds against various human tumor cell lines are presented below in Tables 2-7. […] The growth percent mean, delta, and range for each compound are given below.

UO-31 = test: NCI DTP human tumor cell line screen (SRB); conditions: Renal Cancer, 10 μM, 48 h
Experimental: as §1

OVCAR-4 = test: NCI DTP human tumor cell line screen (SRB); conditions: Ovarian Cancer, 10 μM, 48 h
Experimental: as §1

BT-549 = test: NCI DTP human tumor cell line screen (SRB); conditions: Breast Cancer, 10 μM, 48 h
Experimental: as §1

786-0 = test: NCI DTP human tumor cell line screen (SRB); conditions: Renal Cancer, 10 μM, 48 h
Experimental: as §1

SR = test: NCI DTP human tumor cell line screen (SRB); conditions: Leukemia, 10 μM, 48 h
Experimental: as §1

K-562 = test: NCI DTP human tumor cell line screen (SRB); conditions: Leukemia, 10 μM, 48 h
Experimental: as §1

HCT-116 = test: NCI DTP human tumor cell line screen (SRB); conditions: Colon Cancer, 10 μM, 48 h
Experimental: as §1

SF-539 = test: NCI DTP human tumor cell line screen (SRB); conditions: CNS Cancer, 10 μM, 48 h
Experimental: as §1

CCRF-CEM = test: NCI DTP human tumor cell line screen (SRB); conditions: Leukemia, 10 μM, 48 h
Experimental: as §1

SK-MEL-2 = test: NCI DTP human tumor cell line screen (SRB); conditions: Melanoma, 10 μM, 48 h
Experimental: as §1

MOLT-4 = test: NCI DTP human tumor cell line screen (SRB); conditions: Leukemia, 10 μM, 48 h
Experimental: as §1

HCC-2998 = test: NCI DTP human tumor cell line screen (SRB); conditions: Colon Cancer, 10 μM, 48 h
Experimental: as §1

ACHN = test: NCI DTP human tumor cell line screen (SRB); conditions: Renal Cancer, 10 μM, 48 h
Experimental: as §1

HOP-62 = test: NCI DTP human tumor cell line screen (SRB); conditions: Non-Small Cell Lung Cancer, 10 μM, 48 h
Experimental: as §1

SN12C = test: NCI DTP human tumor cell line screen (SRB); conditions: Renal Cancer, 10 μM, 48 h
Experimental: as §1

UACC-62 = test: NCI DTP human tumor cell line screen (SRB); conditions: Melanoma, 10 μM, 48 h
Experimental: as §1

MCF7 = test: NCI DTP human tumor cell line screen (SRB); conditions: Breast Cancer, 10 μM, 48 h
Experimental: as §1

NCI-H23 = test: NCI DTP human tumor cell line screen (SRB); conditions: Non-Small Cell Lung Cancer, 10 μM, 48 h
Experimental: as §1

UACC-257 = test: NCI DTP human tumor cell line screen (SRB); conditions: Melanoma, 10 μM, 48 h
Experimental: as §1

OVCAR-5 = test: NCI DTP human tumor cell line screen (SRB); conditions: Ovarian Cancer, 10 μM, 48 h
Experimental: as §1

OVCAR-3 = test: NCI DTP human tumor cell line screen (SRB); conditions: Ovarian Cancer, 10 μM, 48 h
Experimental: as §1

U251 = test: NCI DTP human tumor cell line screen (SRB); conditions: CNS Cancer, 10 μM, 48 h
Experimental: as §1

MDA-MB-231/ATCC = test: NCI DTP human tumor cell line screen (SRB); conditions: Breast Cancer, 10 μM, 48 h
Experimental: as §1

A498 = test: NCI DTP human tumor cell line screen (SRB); conditions: Renal Cancer, 10 μM, 48 h
Experimental: as §1

SF-295 = test: NCI DTP human tumor cell line screen (SRB); conditions: CNS Cancer, 10 μM, 48 h
Experimental: as §1

HS 578T = test: NCI DTP human tumor cell line screen (SRB); conditions: Breast Cancer, 10 μM, 48 h
Experimental: as §1

RPMI-8226 = test: NCI DTP human tumor cell line screen (SRB); conditions: Leukemia, 10 μM, 48 h
Experimental: as §1

NCI/ADR-RES = test: NCI DTP human tumor cell line screen (SRB); conditions: Breast Cancer, 10 μM, 48 h
Experimental: as §1

SK-MEL-5 = test: NCI DTP human tumor cell line screen (SRB); conditions: Melanoma, 10 μM, 48 h
Experimental: as §1

SNB-19 = test: NCI DTP human tumor cell line screen (SRB); conditions: CNS Cancer, 10 μM, 48 h
Experimental: as §1

Row | SMILES | inhibitory activities against cancer cells [1] | mean growth percent [1] [%] | delta value (growth percent) [1] | range (growth percent) [1] | Growth Percent (UO-31) [%] | Growth Percent (OVCAR-4) [%] | Growth Percent (BT-549) [%] | Growth Percent (786-0) [%] | Growth Percent (SR) [%] | Growth Percent (K-562) [%] | Growth Percent (HCT-116) [%] | Growth Percent (SF-539) [%] | Growth Percent (CCRF-CEM) [%] | Growth Percent (SK-MEL-2) [%] | Growth Percent (MOLT-4) [%] | Growth Percent (HCC-2998) [%] | Growth Percent (ACHN) [%] | Growth Percent (HOP-62) [%] | Growth Percent (SN12C) [%] | Growth Percent (UACC-62) [%] | other results
1 | CC1CCC2C(C)C(OCc3ccc(C(=O)NN=Cc4ccccc4O)nc3)OC3OC4(C)CCC1C32OO4 (stereo not drawn) [ART-Pyr-Sal, N′-(2-hydroxybenzylidene)-5-(dihydroxyartemisinin-methyl)-2-pyridine carbohydrazide] | inhibitory activities against several types of cancer cells | 12.83 | 42.97 | 85.3 | 0.04 | 23.04 | 15.65 | −17.58 | −30.14 | 26.88 | 18.34 | −29.69 | −17.26 | −23.42 | 10.13 | 4.91 | 10.64 | 20.73 | 22.81 | 7.61 | Growth Percent (MCF7): 13.61%; Growth Percent (NCI-H23): 16.47%; Growth Percent (UACC-257): 6.22%; Growth Percent (OVCAR-5): 55.16%; Growth Percent (OVCAR-3): 35.18%; Growth Percent (U251): 14.70%; Growth Percent (MDA-MB-231/ATCC): 50.08%; Growth Percent (A498): 5.27%; Growth Percent (SF-295): 4.52%; Growth Percent (HS 578T): 19.38%; Growth Percent (RPMI-8226): 13.76%; Growth Percent (NCI/ADR-RES): 6.72%; Growth Percent (SK-MEL-5): −18.98%; Growth Percent (SNB-19): 20.71%
2 | CC1CCC2C(C)C(OCCn3cc(C(=O)NN=Cc4ccccc4O)nn3)OC3OC4(C)CCC1C32OO4 (stereo not drawn) [ART-Triazole-Sal, N′-(2-hydroxybenzylidene)-1-(dihydroxyartemisinin-ethyl)-1H-1,2,3-triazole-4-carbohydrazide] | inhibitory activities against several types of cancer cells | 22.31 | 53.47 | 83.7 | −28.61 | 15.89 | 40.56 | 1.80 | 0.08 | 17.31 | 20.87 | 14.19 | −14.86 | −15.86 | −0.29 | 25.98 | 15.69 | 24.18 | 45.26 | 10.70 | mean growth percent ([1]; summary text): 22.31%; Growth Percent (MCF7): 13.62%; Growth Percent (NCI-H23): 30.70%; Growth Percent (UACC-257): 19.39%; Growth Percent (OVCAR-5): 41.28%; Growth Percent (OVCAR-3): 50.36%; Growth Percent (U251): 24.89%; Growth Percent (MDA-MB-231/ATCC): 52.54%; Growth Percent (A498): 50.94%; Growth Percent (SF-295): 24.32%; Growth Percent (HS 578T): 48.29%; Growth Percent (RPMI-8226): 18.69%; Growth Percent (NCI/ADR-RES): 15.88%; Growth Percent (SK-MEL-5): 12.45%; Growth Percent (SNB-19): 45.73%
